Assay results reported in ChEMBL document CHEMBL1201862, “PubChem BioAssay data set” (2004).
Activity calls are given as the source filed them.

Experiments:
[1] = target: T1, CAAX prenyl protease 2 (Saccharomyces cerevisiae S288c, UniProt Q03530); assay type: biochemical
T1 sequence (Q03530 whole entry): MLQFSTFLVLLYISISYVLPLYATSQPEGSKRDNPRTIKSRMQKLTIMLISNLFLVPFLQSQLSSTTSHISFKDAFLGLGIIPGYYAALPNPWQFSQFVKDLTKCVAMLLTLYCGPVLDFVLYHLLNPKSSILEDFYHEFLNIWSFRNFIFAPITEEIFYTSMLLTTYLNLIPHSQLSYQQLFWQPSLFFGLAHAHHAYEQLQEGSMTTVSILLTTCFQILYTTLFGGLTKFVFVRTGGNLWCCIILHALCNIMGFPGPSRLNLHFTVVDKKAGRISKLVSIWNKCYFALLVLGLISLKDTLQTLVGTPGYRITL

[2] = target: T2, Nuclear receptor subfamily 0 group B member 1 (Homo sapiens, UniProt P51843); experiment: Luminescence-based cell-based high throughput dose response assay for inhibitors of the orphan nuclear receptor subfamily 0, group B, member 1 (DAX1; NR0B1). [Related pubchem assays (depositor defined):AID504766, AID504790]; assay type: functional
T2 sequence (P51843 whole entry): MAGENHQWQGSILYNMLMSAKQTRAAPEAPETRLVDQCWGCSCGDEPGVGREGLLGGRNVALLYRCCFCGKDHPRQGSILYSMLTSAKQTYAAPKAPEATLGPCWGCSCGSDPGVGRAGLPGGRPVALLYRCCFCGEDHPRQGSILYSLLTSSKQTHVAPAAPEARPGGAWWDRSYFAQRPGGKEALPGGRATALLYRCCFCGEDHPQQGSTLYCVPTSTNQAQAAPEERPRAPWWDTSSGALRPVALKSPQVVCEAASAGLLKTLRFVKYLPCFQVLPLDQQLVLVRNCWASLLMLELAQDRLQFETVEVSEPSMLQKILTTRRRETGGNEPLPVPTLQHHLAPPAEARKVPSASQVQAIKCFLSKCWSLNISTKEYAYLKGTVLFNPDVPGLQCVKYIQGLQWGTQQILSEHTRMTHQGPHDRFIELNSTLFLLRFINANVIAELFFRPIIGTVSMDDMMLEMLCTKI

[3] = tested on: HEK293; experiment: cells; assay type: functional, cell-based; conditions: Homo sapiens
[4] = Luminescence Cell-Based Secondary HTS screen to identify cytotoxic compounds of NIH3T3 cells. [Related pubchem assays: 1885, 1968 ]; assay type: functional
[5] = Luminescence Cell-Based/Microorganism Confirmation at Dose of Inhibitors of Trypanosoma cruzi Infection. [Related pubchem assays: 1885, 1968 ]; assay type: functional
[6] = T. cruzi infection blockers in NIH3T3 cells – beta-gal luminescence, NIH3T3 host cells, confirmation (AID 2630); assay type: functional, cell-based; conditions: Mus musculus
[7] = restored growth of temperature-sensitive Burl-1 yeast – whole organism, S. cerevisiae, Burl-1 ts mutant, luminescence, counter-screen for SUMOylation pathway inhibitor project, dose response (AID 463199); assay type: functional
[8] = target: T3, Cytochrome P450 1A2 (Homo sapiens, UniProt P05177);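 note: PubChem cytochrome P450 panel assay, CYP1A2 panel member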
T3 sequence (P05177 whole entry): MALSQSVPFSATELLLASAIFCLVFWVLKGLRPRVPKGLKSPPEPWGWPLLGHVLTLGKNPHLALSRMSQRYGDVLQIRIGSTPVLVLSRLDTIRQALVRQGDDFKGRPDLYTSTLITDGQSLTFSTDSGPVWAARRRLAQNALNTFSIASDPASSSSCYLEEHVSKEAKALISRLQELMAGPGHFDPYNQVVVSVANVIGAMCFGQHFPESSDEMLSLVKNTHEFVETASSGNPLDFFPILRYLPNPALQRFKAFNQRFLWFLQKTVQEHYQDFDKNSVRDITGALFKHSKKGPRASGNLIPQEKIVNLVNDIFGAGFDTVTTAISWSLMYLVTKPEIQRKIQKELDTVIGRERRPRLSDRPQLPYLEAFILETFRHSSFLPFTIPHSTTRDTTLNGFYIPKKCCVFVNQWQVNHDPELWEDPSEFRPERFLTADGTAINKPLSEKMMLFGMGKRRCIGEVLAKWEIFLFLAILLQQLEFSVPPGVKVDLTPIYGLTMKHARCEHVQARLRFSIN

[9] = target: Cytochrome P450 2C9 (Homo sapiens, UniProt P11712)
Chain of Cytochrome P450 2C9 (P11712 whole entry): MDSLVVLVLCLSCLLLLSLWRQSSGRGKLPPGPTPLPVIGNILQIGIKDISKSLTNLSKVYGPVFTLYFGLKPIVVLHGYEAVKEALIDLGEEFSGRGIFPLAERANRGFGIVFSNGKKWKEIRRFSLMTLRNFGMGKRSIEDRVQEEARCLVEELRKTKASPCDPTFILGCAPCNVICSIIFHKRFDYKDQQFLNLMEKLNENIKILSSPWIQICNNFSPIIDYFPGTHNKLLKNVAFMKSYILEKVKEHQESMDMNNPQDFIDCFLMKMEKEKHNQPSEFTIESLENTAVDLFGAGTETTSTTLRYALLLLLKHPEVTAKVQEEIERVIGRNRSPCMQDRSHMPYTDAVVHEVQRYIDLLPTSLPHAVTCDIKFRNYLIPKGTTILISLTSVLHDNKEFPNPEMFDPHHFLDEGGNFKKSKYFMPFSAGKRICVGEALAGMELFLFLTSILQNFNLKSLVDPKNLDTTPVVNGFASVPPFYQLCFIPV

[10] = target: T4, Dual specificity protein phosphatase 3 (Homo sapiens, UniProt P51452); experiment: SAR VHR1 Fluorescent Assay for In Vitro dose response studies. [Related pubchem assays (depositor defined):AID1654, AID1661, AID1878, AID1992, AID2004, AID2070, AID2085]; assay type: functional
T4 sequence (P51452 whole entry): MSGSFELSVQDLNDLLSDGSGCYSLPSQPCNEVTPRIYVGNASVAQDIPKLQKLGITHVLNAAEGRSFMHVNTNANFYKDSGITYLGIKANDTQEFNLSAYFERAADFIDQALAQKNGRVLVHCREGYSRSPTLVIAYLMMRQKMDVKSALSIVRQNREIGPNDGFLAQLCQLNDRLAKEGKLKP

[11] = target: Dual specificity protein phosphatase 6 (Rattus norvegicus, UniProt Q64346); assay type: functional;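 note: confirmatory in vitro dose-response testing of MKP-3 inhibition; recombinant His-tagged MKP-3 made in E. coli BL21 with OMFP substrate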
[12] = target: T4, Dual specificity protein phosphatase 3; experiment: MOA VHR1 Fluorescent secondary assay for identification of redox-state modulating compounds. [Related pubchem assays (depositor defined):AID1654, AID1661, AID1878, AID1957]
[13] = target: Tyrosine-protein phosphatase non-receptor type 7 (Homo sapiens, UniProt P35236); experiment: redox-active compounds inhibiting HePTP phosphatase – biochemical, fluorescence, mechanism study (AID 2068); assay type: functional
Chain of Tyrosine-protein phosphatase non-receptor type 7 (P35236 whole entry): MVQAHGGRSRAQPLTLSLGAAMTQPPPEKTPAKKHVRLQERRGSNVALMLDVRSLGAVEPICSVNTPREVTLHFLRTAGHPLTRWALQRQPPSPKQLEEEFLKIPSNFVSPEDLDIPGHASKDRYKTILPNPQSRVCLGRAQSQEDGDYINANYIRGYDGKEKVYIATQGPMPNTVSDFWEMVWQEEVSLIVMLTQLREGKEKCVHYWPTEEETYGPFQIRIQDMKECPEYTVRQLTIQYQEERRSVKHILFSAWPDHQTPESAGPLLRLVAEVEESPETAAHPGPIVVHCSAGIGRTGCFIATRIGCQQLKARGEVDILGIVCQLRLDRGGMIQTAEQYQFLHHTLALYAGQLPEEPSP

[14] = target: ATP-dependent molecular chaperone HSP82 (Candida albicans (strain WO-1) (Yeast), UniProt C4YTQ8); experiment: steroid-induced GRE reporter decrease in yeast – S. cerevisiae, luminescence, Hsp90 inhibitor project, dose response (AID 2400); assay type: functional, cell-based;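 note: beta-galactosidase luminescence from glucocorticoid response element reporter as proxy for Hsp90 function; inhibitor potency where signal loss means Hsp90 inhibition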
Chain of ATP-dependent molecular chaperone HSP82 (C4YTQ8 whole entry): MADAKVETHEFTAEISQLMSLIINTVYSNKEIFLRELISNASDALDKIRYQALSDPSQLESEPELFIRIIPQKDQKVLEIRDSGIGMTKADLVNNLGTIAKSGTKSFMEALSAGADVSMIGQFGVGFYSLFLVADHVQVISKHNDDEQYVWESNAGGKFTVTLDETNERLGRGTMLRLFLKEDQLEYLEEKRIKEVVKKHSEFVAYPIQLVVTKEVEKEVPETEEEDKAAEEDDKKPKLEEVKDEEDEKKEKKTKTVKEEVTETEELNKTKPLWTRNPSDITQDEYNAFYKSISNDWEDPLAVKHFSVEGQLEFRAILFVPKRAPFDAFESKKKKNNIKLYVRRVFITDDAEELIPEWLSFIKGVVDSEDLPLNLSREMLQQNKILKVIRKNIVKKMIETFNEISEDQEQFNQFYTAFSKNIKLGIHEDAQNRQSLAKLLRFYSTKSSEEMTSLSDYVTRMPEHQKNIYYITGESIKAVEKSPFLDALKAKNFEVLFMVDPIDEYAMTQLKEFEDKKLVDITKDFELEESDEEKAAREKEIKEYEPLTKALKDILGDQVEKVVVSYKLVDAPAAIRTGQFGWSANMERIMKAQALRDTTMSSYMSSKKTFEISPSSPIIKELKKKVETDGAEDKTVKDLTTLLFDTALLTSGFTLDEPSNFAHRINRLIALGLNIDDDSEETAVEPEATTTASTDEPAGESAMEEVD

[15] = fluconazole-exposed Candida albicans growth modulators – fluorescence, retest, confirmation (AID 2467); assay type: functional, cell-based
[16] = NIH-3T3 fibroblast cytotoxicity, dose response, cytotoxicity control, cell-based, fluorescence, Alamar Blue, secondary assay (AID 2327); assay type: functional;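 note: NIH-3T3 mouse fibroblasts cultured with fluconazole at 8 µg/mL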
[17] = target: Serine/threonine-protein phosphatase (Candida dubliniensis (strain CD36 / CBS 7987 / NCPF 3949 / NRRLY-17841) (Yeast), UniProt B9W6M3); experiment: blockers of CaCl2-induced CDRE-lacZ signaling – S. cerevisiae, luminescence, secondary, dose response (AID 2388); assay type: functional, cell-based;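 note: yeast reporter cells carrying a calcineurin-responsive lacZ construct stimulated with calcium chloride; luminescent beta-galactosidase reporter signal in whole cells rather than isolated phosphatase activity; potency for inhibition where a drop in reporter signal means calcineurin blockade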
Chain of Serine/threonine-protein phosphatase (B9W6M3 whole entry): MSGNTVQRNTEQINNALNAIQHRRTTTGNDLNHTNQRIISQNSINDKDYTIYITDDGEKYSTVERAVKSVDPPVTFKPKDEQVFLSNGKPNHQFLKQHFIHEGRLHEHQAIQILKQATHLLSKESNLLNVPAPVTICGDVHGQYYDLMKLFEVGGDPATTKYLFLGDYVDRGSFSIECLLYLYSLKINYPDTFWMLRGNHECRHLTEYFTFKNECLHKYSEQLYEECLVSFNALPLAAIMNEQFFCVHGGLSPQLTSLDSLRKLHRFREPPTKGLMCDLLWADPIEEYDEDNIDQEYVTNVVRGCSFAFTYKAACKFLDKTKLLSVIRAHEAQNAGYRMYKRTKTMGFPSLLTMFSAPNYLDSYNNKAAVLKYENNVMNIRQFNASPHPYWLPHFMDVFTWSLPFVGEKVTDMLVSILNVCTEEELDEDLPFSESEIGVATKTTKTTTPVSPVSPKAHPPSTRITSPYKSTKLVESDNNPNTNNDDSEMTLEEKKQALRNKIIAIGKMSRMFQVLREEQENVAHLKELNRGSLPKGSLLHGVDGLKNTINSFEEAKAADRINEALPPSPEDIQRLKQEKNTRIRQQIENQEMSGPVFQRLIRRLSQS

[18] = tested on: NIH3T3; experiment: NIH-3T3 viability loss with fluconazole – cell-based, Alamar Blue, dry powder, set 3, cytotoxicity control for reversing antifungal drug resistance, dose response (AID 488933); assay type: functional; conditions: Mus musculus
[19] = target: Troponin, cardiac muscle (Homo sapiens, UniProt P19429+P45379+P63316); experiment: Fluorescence-based biochemical high throughput dose response assay for activators of the calcium sensitivity of cardiac Regulated Thin Filaments (RTF). [Related pubchem assays (depositor defined):AID493008, AID493018, AID504382, AID504383]; assay type: protein-complex assay
[20] = target: T3, Cytochrome P450 1A2; remark: listed apart in the source
[21] = target: Cytochrome P450 2D6 (Homo sapiens, UniProt P10635);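 note: CYP2D6 member of a cytochrome P450 panel assay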
Chain of Cytochrome P450 2D6 (P10635 whole entry): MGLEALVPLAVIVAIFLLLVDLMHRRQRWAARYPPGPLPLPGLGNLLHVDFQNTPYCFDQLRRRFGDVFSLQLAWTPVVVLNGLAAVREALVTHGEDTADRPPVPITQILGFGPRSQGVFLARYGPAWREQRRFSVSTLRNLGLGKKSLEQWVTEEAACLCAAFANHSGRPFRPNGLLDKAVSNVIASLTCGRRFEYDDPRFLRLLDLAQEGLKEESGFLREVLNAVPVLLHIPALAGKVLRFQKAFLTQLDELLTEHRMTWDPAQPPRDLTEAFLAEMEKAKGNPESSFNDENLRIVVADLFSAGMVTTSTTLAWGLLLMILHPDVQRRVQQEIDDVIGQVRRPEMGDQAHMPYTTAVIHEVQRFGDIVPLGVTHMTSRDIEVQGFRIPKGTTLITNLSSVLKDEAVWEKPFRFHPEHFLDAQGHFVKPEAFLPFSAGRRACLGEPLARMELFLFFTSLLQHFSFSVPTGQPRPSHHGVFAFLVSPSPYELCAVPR

[22] = target: Keap1/Nrf2 (Homo sapiens, UniProt Q14145); experiment: disruptors of Keap1 binding to Nrf2 peptide – biochemical, fluorescence polarization, cherry-picked samples, dose response (AID 588683)
Chain of Keap1/Nrf2 (Q16236 whole entry, the tested form may be a part): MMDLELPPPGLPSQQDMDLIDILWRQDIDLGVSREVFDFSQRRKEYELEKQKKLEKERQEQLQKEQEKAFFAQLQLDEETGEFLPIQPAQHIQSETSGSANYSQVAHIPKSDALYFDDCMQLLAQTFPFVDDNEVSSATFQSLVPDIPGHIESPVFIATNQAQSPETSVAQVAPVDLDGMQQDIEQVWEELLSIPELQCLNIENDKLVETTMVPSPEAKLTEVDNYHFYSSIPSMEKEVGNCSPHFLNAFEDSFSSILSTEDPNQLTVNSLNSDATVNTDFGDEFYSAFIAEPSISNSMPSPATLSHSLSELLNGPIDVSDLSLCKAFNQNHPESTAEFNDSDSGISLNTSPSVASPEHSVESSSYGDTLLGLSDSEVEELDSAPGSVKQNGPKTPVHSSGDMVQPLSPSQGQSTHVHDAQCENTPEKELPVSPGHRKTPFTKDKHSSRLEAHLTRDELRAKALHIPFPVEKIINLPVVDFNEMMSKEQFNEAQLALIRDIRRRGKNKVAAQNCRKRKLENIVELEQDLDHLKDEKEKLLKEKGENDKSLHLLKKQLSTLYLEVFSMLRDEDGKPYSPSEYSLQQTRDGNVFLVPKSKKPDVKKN
Chain of Keap1/Nrf2 (Q14145 whole entry, the tested form may be a part): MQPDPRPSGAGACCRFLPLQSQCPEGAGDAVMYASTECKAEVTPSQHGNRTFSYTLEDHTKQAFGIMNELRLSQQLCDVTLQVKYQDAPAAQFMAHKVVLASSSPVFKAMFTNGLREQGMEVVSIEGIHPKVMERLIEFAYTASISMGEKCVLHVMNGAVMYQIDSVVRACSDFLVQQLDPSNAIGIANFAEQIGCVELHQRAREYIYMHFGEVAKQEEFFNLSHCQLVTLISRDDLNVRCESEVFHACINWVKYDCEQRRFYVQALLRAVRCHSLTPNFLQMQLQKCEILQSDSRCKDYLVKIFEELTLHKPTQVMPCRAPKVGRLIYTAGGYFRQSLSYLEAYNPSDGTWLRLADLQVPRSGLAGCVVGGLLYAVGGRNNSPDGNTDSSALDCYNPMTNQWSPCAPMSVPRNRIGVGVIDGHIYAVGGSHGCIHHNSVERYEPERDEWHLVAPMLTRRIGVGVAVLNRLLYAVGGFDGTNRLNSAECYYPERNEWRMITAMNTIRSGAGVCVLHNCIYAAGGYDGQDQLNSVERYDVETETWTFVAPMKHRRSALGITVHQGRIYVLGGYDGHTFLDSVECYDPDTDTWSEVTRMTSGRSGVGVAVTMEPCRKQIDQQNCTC

[23] = target: Hexokinase-1 (Homo sapiens, UniProt P19367); experiment: SAR analysis of small molecule inhibitors of hexokinase domain containing I (HKDC1) in the hexokinase 1 selectivity assay. [Related pubchem assays (depositor defined):AID493160, AID493190]; assay type: functional
Chain of Hexokinase-1 (P19367 whole entry, the tested form may be a part): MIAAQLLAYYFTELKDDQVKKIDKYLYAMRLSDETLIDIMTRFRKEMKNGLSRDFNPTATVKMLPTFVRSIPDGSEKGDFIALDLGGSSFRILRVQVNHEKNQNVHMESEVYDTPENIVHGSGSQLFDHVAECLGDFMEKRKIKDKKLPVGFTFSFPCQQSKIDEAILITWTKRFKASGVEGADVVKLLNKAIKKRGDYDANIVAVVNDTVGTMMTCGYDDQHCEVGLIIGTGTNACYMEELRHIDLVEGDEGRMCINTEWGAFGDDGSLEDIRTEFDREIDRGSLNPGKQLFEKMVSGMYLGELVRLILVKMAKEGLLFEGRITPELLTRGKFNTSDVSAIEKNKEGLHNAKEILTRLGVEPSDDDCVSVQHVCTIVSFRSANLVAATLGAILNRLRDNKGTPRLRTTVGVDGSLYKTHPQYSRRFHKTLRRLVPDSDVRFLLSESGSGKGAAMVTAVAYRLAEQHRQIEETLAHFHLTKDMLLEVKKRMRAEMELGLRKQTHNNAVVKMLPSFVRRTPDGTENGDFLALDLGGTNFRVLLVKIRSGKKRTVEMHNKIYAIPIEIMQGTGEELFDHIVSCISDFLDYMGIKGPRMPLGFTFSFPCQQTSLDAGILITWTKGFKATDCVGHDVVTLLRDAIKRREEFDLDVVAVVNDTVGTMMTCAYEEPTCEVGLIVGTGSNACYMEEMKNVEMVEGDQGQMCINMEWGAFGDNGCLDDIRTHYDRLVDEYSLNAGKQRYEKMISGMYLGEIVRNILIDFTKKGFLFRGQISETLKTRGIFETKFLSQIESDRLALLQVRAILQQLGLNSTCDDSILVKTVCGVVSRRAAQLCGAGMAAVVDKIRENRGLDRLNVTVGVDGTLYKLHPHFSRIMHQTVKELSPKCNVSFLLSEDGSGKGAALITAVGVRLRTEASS

[24] = target: T5, Hexokinase HKDC1 (Homo sapiens, UniProt Q2TB90); experiment: SAR analysis of small molecule inhibitors of hexokinase domain containing I (HKDC1). [Related pubchem assays (depositor defined):AID493160, AID493190]; assay type: functional
T5 sequence (Q2TB90 whole entry): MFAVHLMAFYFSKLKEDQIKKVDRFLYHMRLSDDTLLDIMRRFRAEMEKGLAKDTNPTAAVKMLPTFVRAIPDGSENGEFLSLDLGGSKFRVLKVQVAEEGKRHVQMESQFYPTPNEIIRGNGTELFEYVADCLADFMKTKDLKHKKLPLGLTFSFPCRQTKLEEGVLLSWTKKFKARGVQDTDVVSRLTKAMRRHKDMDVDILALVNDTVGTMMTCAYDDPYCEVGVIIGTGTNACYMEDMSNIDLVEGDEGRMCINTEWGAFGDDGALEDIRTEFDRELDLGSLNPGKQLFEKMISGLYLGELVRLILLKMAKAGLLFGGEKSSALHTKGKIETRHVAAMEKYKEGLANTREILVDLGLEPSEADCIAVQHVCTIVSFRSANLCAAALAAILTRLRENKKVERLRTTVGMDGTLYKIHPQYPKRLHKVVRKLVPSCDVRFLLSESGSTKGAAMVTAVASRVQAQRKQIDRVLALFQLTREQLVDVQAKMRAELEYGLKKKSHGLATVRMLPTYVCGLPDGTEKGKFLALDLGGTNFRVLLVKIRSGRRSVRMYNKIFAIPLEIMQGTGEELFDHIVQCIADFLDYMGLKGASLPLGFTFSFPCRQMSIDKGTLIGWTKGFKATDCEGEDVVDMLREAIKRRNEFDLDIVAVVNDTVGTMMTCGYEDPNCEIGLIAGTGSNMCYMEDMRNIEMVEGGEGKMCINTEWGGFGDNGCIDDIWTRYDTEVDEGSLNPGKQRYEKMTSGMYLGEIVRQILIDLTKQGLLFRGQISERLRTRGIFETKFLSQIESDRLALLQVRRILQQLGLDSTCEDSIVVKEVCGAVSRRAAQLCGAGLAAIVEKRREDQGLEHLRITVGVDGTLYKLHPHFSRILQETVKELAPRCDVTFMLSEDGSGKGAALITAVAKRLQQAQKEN

[25] = tested on: INS1; experiment: suppression of cytokine-induced beta-cell apoptosis – INS-1E, caspase luminescence, dry powder, beta-cell apoptosis inhibitor project, dose response (AID 488848); assay type: functional, cell-based; conditions: Rattus norvegicus
[26] = luciferase reporter signal suppression in cells – H4 neuroglioma cells, luminescence, dose response (AID 1990); assay type: functional, cell-based
[27] = alpha-synuclein stem-loop translation blockers – luminescence, H4 neuroglioblastoma cells, dose confirmation, confirmation (AID 2454); assay type: functional, cell-based;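 note: H4 neuroglioblastoma cells carrying an alpha-synuclein 5'UTR luciferase reporter; potency for inhibition of the luciferase signal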
[28] = tested on: Jurkat; experiment: blockers of NF-kB activation in T cells – Jurkat, luciferase reporter, luminescence, B- and T-cell, dose response (AID 489004); assay type: functional, cell-based; conditions: Homo sapiens;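 note: NF-kB luciferase reporter Jurkat cells stimulated with PMA plus ionomycin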
[29] = HEK-293T viability loss, compound-treated – cell-based, uHTS hits, cytotoxicity control for B/T-cell NF-kB inhibitor project, dose response (AID 489019); assay type: functional;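 note: IC50 reflects cytotoxicity as loss of cell viability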
[30] = luciferase reporter signal reduction – luminescence, H4-C neuroglioblastoma cells, dose response (AID 2458); assay type: functional, cell-based;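 note: H4 neuroglioblastoma cells stably carrying a luciferase reporter gene fusion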
[31] = alpha-synuclein stem-loop luciferase translation blockers – H4 neuroglioma cells, luminescence, confirmation (AID 1988); assay type: functional, cell-based
[32] = Luminescence Cell-Based Dose Response HTS to Identify Inhibitors of 5'UTR Stem-Loop Driven Prion Protein mRNA Translation in H4 Neuroglioblastoma Cells. [Related pubchem assays: 1827 (Project Summary), 1813 (Primary HTS)]; assay type: functional
[33] = cells; assay type: functional, cell-based

## O=C(Nc1ccc2c(c1)CCC2)c1ccccc1Br
[1]
  AC50: 8.42 µM (active)
[2]
  IC50: > 67.6 µM (inactive)
[3]
  IC50: > 67.6 µM (inactive)

## CC1CC(C)CN(CCOCCSc2ccccc2)C1 (stereo not drawn)
[4]
  EC50: > 195 µM (not active)
[5]
  EC50: 0.098 µM (active)
[6]
  EC50: 0.098 µM (active)

## Cc1cccc(N2C(=O)/C(=C/c3cccnc3)SC2=S)c1
[7]
  AC50: 51.7 µM (active)

## CC(=O)N1CCC2(CC1)CN(c1ccncc1)C2
[8]
  AC50: inconclusive
[9]
  AC50: inconclusive

## CCOC(=O)C1=C(c2ccccc2)N=c2sc(=Cc3cc(OC)c(OC)c(OC)c3)c(=O)n2C1c1cccs1 (stereo not drawn)
[10]
  IC50: > 50 µM (inactive)
[11]
  IC50: > 50 µM (inactive)
[12]
  IC50: > 50 µM (inactive)
[13]
  IC50: > 50 µM (inactive)

## COc1cccc(C2CC(c3ccc(NS(C)(=O)=O)cc3)=NN2C(=O)c2ccccc2)c1OC (stereo not drawn)
[14]
  EC50: > 150 µM (inactive)
[15]
  EC50: 1.17 µM (active)
[16]
  EC50: > 150 µM (inactive)
[17]
  EC50: > 180 µM (inactive)

## O=C(c1ccccc1)N1CCN(c2ccccn2)CC1
[18]
  AC50: 184 µM (active)

## CN1CCC2(CC1)C1CN(C)CC=C1C(C#N)=C(N)C2(C#N)C#N (stereo not drawn)
[19]
  EC50: 9 µM (active)
[20]
  AC50: 20 µM (inconclusive)
[21]
  AC50: 14.1 µM (inconclusive)
[22]
  AC50: > 52 µM (inactive)

## O=c1c2ccccc2nc(/C=C/c2ccc(Cl)cc2)n1Cc1ccccc1
[23]
  IC50: > 80 µM (inactive)
[24]
  IC50: > 80 µM (inactive)

## COc1ccc(S(=O)(=O)N(C)C[C@@H]2Oc3c(NC(=O)Nc4cccc5c4CCCC5)cccc3C(=O)N([C@@H](C)CO)C[C@H]2C)cc1
[25]
  AC50: 52.3 µM (active)

## Cc1nn(C(C)(C)C)c(C)c1/C=N/OC(=O)Nc1ccc(Cl)cc1
[26]
  EC50: < 0.1 µM (active)
[27]
  EC50: 0.037 µM (active)
[28]
  IC50: < 0.16 µM (active)
[29]
  IC50: > 80 µM (inactive)
[30]
  EC50: 0.059 µM (active)
[31]
  EC50: < 0.1 µM (active)
[32]
  EC50: < 0.1 µM (active)
[33]
  EC50: 0.075 µM (active)
